Test results published in patent publication US8952024B2, “Herbicidal pyrimidone derivatives” (E I du Pont de Nemours and Company, priority 2009, dated 2015).

What was measured:
Assay type in all cases: in vivo
[1] = test system: chickweed (Stellaria media); test: Test B postemergence plant response
In short: (§1)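 Plants at the 1- to 4-leaf stage (2 to 18 cm tall), grown in pots of peat moss/vermiculite medium with wetting agent and starter nutrients, received postemergence applications of test chemicals. After 13 to 15 days in a greenhouse, injury was rated visually against untreated controls on a 0 (no effect) to 100 (complete control) scale.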

[2] = test system: winter barley (Hordeum vulgare); test: Test B postemergence plant response
In short: as §1

[3] = test system: canarygrass (Phalaris minor); test: Test B postemergence plant response
In short: as §1

[4] = test system: green foxtail (Setaria viridis); test: Test B pre-/postemergence plant response
In short: (§2)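 Response scores were assigned visually after 13 to 15 days in a greenhouse, comparing treated pots with controls on a 0–100 scale where 100 denotes complete control. Preemergence treatments went onto freshly seeded loam/sand soil; postemergence treatments onto plants 2 to 18 cm tall.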

[5] = test system: johnsongrass (Sorghum halepense); test: Test B pre-/postemergence plant response
In short: as §2

[6] = test system: soybean (Glycine max); test: Test B pre-/postemergence plant response
In short: as §2

[7] = test system: corn (Zea mays); test: Test B pre-/postemergence plant response
In short: as §2

[8] = test system: goosegrass (Eleusine indica); test: Test B pre-/postemergence plant response
In short: as §2

[9] = test system: blackgrass (Alopecurus myosuroides); test: Test B pre-/postemergence plant response
In short: as §2

[10] = test system: bermudagrass (Cynodon dactylon); test: Test B pre-/postemergence plant response
In short: as §2

[11] = test system: velvetleaf (Abutilon theophrasti); test: Test B pre-/postemergence plant response
In short: as §2

[12] = test system: downy bromegrass (Bromus tectorum); test: Test B pre-/postemergence plant response
In short: as §2

[13] = test system: Italian ryegrass (Lolium multiflorum); test: Test B pre-/postemergence plant response
In short: as §2

[14] = test system: pigweed (Amaranthus retroflexus); test: Test B pre-/postemergence plant response
In short: as §2

[15] = test system: morningglory (Ipomoea coccinea); test: Test B pre-/postemergence plant response
In short: as §2

[16] = test system: wheat (Triticum aestivum); test: Test B pre-/postemergence plant response
In short: as §2

[17] = test system: ragweed (common ragweed, Ambrosia elatior); test: Test B pre-/postemergence plant response
In short: as §2

[18] = test system: giant foxtail (Setaria faberii); test: Test B pre-/postemergence plant response
In short: as §2

[19] = 31 g ai/ha, postemergence, scale 0 to 100, 0 is no effect, 100 is complete control
[20] = Postemergence, 62 g ai/ha, scale 0 (no effect) to 100 (complete control), 13 to 15 days
[21] = Postemergence, 125 g ai/ha, visual rating after 13 to 15 days, scale 0 (no effect) to 100 (complete control)
[22] = Postemergence, 250 g ai/ha, scale 0 to 100 (0 no effect, 100 complete control)
[23] = 250 g ai/ha, Preemergence, 0 to 100 scale
[24] = Preemergence, 31 g ai/ha, scale 0 to 100 (0 no effect, 100 complete control)
[25] = Preemergence, 62 g ai/ha, scale 0 to 100, 0 no effect, 100 complete control
[26] = Preemergence, 125 g ai/ha, scale 0 to 100, 0 no effect, 100 complete control

Cc1ccc(Cl)cc1-n1c(-c2ccccc2)ncc(C(=O)C2=C(O)CCCC2=O)c1=O [Compound 52]
5: Plant response rating, Blackgrass [9, 19] | Plant response rating, Blackgrass [9, 20] | Plant response rating, Bromegrass, Downy [12, 23] | Plant response rating, Bromegrass, Downy [12, 25] | Plant response rating, Bromegrass, Downy [12, 26]
70: Plant response rating, Bromegrass, Downy [12, 22]
80: Plant response rating, Soybean [6, 19] | Plant response rating, Soybean [6, 23] | Plant response rating, Corn [7, 22] | Plant response rating, Goosegrass [8, 20] | Plant response rating, Velvetleaf [11, 24] | Plant response rating, Ragweed [17, 20] | Plant response rating, Ragweed [17, 21] | Plant response rating, Ragweed [17, 24] | Plant response rating, Ragweed [17, 25] | Plant response rating, Foxtail, Giant [18, 19] | Plant response rating, Foxtail, Giant [18, 20]
30: Plant response rating, Foxtail, Green [4, 25] | Plant response rating, Corn [7, 19] | Plant response rating, Blackgrass [9, 22]
95: Plant response rating, Chickweed [1, 19] | Plant response rating, Chickweed [1, 20] | Plant response rating, Chickweed [1, 21] | Plant response rating, Foxtail, Green [4, 19] | Plant response rating, Johnsongrass [5, 23] | Plant response rating, Johnsongrass [5, 22] | Plant response rating, Soybean [6, 20] | Plant response rating, Soybean [6, 21] | Plant response rating, Bermudagrass [10, 20] | Plant response rating, Bermudagrass [10, 21] | Plant response rating, Velvetleaf [11, 19] | Plant response rating, Pigweed [14, 21] | Plant response rating, Ragweed [17, 23]
55: Plant response rating, Soybean [6, 26] | Plant response rating, Bromegrass, Downy [12, 20] | Plant response rating, Ryegrass, Italian [13, 21] | Plant response rating, Morningglory [15, 23]
10: Plant response rating, Johnsongrass [5, 24] | Plant response rating, Blackgrass [9, 23] | Plant response rating, Morningglory [15, 19]
25: Plant response rating, Barley [2, 21] | Plant response rating, Barley [2, 22] | Plant response rating, Blackgrass [9, 21] | Plant response rating, Wheat [16, 20] | Plant response rating, Foxtail, Giant [18, 26]
100: Plant response rating, Foxtail, Green [4, 23] | Plant response rating, Foxtail, Green [4, 22] | Plant response rating, Goosegrass [8, 23] | Plant response rating, Goosegrass [8, 25] | Plant response rating, Goosegrass [8, 26] | Plant response rating, Bermudagrass [10, 23] | Plant response rating, Bermudagrass [10, 22] | Plant response rating, Velvetleaf [11, 23] | Plant response rating, Velvetleaf [11, 22] | Plant response rating, Pigweed [14, 23] | Plant response rating, Pigweed [14, 25] | Plant response rating, Pigweed [14, 26]
65: Plant response rating, Canarygrass [3, 21] | Plant response rating, Corn [7, 21]
60: Plant response rating, Bromegrass, Downy [12, 21] | Plant response rating, Ryegrass, Italian [13, 22]
98: Plant response rating, Chickweed [1, 22] | Plant response rating, Foxtail, Green [4, 20] | Plant response rating, Foxtail, Green [4, 21] | Plant response rating, Soybean [6, 22] | Plant response rating, Goosegrass [8, 24] | Plant response rating, Bermudagrass [10, 24] | Plant response rating, Bermudagrass [10, 25] | Plant response rating, Bermudagrass [10, 26] | Plant response rating, Velvetleaf [11, 20] | Plant response rating, Velvetleaf [11, 21] | Plant response rating, Velvetleaf [11, 25] | Plant response rating, Velvetleaf [11, 26] | Plant response rating, Pigweed [14, 22]
35: Plant response rating, Wheat [16, 21] | Plant response rating, Wheat [16, 22]
40: Plant response rating, Ryegrass, Italian [13, 19]
15: Plant response rating, Wheat [16, 19] | Plant response rating, Foxtail, Giant [18, 25]
75: Plant response rating, Johnsongrass [5, 19] | Plant response rating, Johnsongrass [5, 25] | Plant response rating, Goosegrass [8, 19] | Plant response rating, Morningglory [15, 21] | Plant response rating, Ragweed [17, 19] | Plant response rating, Foxtail, Giant [18, 23]
85: Plant response rating, Canarygrass [3, 22] | Plant response rating, Johnsongrass [5, 20] | Plant response rating, Goosegrass [8, 21] | Plant response rating, Goosegrass [8, 22] | Plant response rating, Bermudagrass [10, 19] | Plant response rating, Pigweed [14, 19] | Plant response rating, Morningglory [15, 22] | Plant response rating, Ragweed [17, 22] | Plant response rating, Ragweed [17, 26]
45: Plant response rating, Foxtail, Green [4, 26] | Plant response rating, Corn [7, 20] | Plant response rating, Ryegrass, Italian [13, 20] | Plant response rating, Morningglory [15, 20] | Plant response rating, Morningglory [15, 26]
0: Plant response rating, Barley [2, 19] | Plant response rating, Barley [2, 20] | Plant response rating, Canarygrass [3, 19] | Plant response rating, Foxtail, Green [4, 24] | Plant response rating, Soybean [6, 24] | Plant response rating, Soybean [6, 25] | Plant response rating, Corn [7, 23] | Plant response rating, Corn [7, 24] | Plant response rating, Corn [7, 25] | Plant response rating, Corn [7, 26] | Plant response rating, Blackgrass [9, 24] | Plant response rating, Blackgrass [9, 25] | Plant response rating, Blackgrass [9, 26] | Plant response rating, Bromegrass, Downy [12, 24] | Plant response rating, Ryegrass, Italian [13, 23] | Plant response rating, Ryegrass, Italian [13, 24] | Plant response rating, Ryegrass, Italian [13, 25] | Plant response rating, Ryegrass, Italian [13, 26] | Plant response rating, Morningglory [15, 24] | Plant response rating, Morningglory [15, 25] | Plant response rating, Wheat [16, 23] | Plant response rating, Wheat [16, 24] | Plant response rating, Wheat [16, 25] | Plant response rating, Wheat [16, 26] | Plant response rating, Foxtail, Giant [18, 24]
90: Plant response rating, Johnsongrass [5, 21] | Plant response rating, Johnsongrass [5, 26] | Plant response rating, Pigweed [14, 20] | Plant response rating, Pigweed [14, 24] | Plant response rating, Foxtail, Giant [18, 21] | Plant response rating, Foxtail, Giant [18, 22]
50: Plant response rating, Canarygrass [3, 20] | Plant response rating, Bromegrass, Downy [12, 19]
